Data on 4 molecules can be found in US20230295260A1, “GLP RECEPTOR AGONISTS” (HEPTARES THERAPEUTICS LIMITED, priority 2020, published 2023).

Non-standard residues stand in square brackets, D forms with d. Residues, ends and D or L forms follow the SMILES beside them. *: point of attachment. Malonyl(2,2-Me2,histaminyl) = CC(C)(C(=O)NCCc1cnc[nH]1)C(=O)*; Ala(1H-tetrazol-5-yl) = N[C@@H](Cc1nnn[nH]1)C(=O)O; αMeL = CC(C)C[C@](C)(N)C(=O)O; Nle = CCCC[C@H](N)C(=O)O; Aib = CC(C)(N)C(=O)O; Alloc = C=CCOC(=O)*

Test [1] concerns the target T1, mouse GLP2 receptor (Mus musculus, UniProt Q5IXF8).
T1 construct: expressed in transfected cells; host or cells: HEK cells, transient transfection with GeneJuice
T1 sequence (Q5IXF8 1-512): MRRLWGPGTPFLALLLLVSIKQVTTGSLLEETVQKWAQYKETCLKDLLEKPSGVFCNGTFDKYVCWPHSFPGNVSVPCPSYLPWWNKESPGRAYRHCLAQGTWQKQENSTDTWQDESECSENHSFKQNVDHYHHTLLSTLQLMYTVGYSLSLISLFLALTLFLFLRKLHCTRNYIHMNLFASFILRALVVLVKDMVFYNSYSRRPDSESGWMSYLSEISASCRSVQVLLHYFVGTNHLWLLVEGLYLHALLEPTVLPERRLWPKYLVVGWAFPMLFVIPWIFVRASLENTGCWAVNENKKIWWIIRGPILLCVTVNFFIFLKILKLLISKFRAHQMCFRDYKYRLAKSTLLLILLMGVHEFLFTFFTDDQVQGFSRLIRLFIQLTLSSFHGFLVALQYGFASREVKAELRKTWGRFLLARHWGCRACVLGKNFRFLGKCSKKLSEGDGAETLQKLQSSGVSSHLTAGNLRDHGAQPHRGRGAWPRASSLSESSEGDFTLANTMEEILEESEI
Description: cAMP accumulation assay (HTRF), functional agonism of mouse GLP2 receptor in HEK cells. It counts as cell-based. To be noted: HEK cells transiently transfected, 45 min 37° C.; for Emax: HEK293, read-out: Mouse GLP-2R agonist cAMP Emax; for EC50: read-out: Mouse GLP-2R agonist cAMP pEC50 (converted).

The target of test [2] is T2, human GLP2 receptor (Homo sapiens, UniProt O95838).
T2 sequence (O95838 1-553): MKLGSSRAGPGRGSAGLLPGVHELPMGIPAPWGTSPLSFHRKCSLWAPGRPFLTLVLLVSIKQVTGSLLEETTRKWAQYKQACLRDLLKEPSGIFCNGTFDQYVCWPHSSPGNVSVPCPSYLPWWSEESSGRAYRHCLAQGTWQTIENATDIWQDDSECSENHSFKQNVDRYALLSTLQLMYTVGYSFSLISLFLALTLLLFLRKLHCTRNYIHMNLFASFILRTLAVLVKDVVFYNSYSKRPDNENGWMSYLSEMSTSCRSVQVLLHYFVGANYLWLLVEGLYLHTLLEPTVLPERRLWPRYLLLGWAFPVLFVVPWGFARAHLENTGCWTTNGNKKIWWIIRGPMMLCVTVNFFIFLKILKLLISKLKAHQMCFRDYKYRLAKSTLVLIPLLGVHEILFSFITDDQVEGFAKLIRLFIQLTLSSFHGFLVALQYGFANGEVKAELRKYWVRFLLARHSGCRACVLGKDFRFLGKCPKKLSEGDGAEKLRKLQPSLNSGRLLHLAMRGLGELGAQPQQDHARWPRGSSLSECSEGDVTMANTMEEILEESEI
Description: cAMP accumulation assay (HTRF), functional agonism of human GLP2 receptor in HEK cells.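 On all read-outs here: HEK cells transduced via BacMam to express human GLP2 receptor, agonist-stimulated cAMP measured by HTRF after 45 min at 37 °C in HBSS with 0.5 mM IBMX.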 The note with it: for Emax: HEK293, read-out: Human GLP-2R agonist cAMP Emax. (In general: cAMP levels reflect the balance of adenylyl cyclase and phosphodiesterase activity.)
Description: The functional activity of the peptides were assessed using a HTRF cAMP assay. pEC50 values are quoted.
cAMP production upon agonist stimulation of human GLP2 or GLP1 receptor was assessed utilizing HiRange cAMP kit (Cisbio). In brief, HEK cells were infected with either human GLP2 or GLP1 receptor BacMam virus for 24 hours and frozen for later use in the assay. […] Cells were prepared in the assay buffer (HBSS (Lonza) supplemented with 0.5 mM IBMX (Tocris)). After 45 min incubation at 37° C., the reaction was stopped by addition of the HTRF detection reagents in the lysis buffer provided in the kit.

The target of test [3] is T3, mouse GLP1 receptor (Mus musculus, UniProt O35659).
T3 construct: expressed in transfected cells; host or cells: HEK cells, transient transfection with GeneJuice
T3 sequence (O35659 22-463): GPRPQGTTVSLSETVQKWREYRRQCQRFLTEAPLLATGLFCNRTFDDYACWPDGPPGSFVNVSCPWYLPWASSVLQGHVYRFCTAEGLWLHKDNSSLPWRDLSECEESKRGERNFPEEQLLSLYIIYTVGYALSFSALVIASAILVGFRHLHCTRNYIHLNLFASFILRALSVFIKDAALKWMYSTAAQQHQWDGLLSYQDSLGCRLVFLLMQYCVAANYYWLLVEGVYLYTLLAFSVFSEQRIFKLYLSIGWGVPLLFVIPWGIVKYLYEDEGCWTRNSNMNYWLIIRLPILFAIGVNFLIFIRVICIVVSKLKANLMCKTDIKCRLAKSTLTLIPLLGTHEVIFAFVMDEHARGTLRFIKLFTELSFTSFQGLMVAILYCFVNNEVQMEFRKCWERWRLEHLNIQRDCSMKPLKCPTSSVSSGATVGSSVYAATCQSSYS
Description: cAMP accumulation assay (HTRF), functional agonism of mouse GLP1 receptor in HEK cells. It counts as cell-based. To be noted: HEK cells transiently transfected, 45 min 37° C.; for Emax: HEK293, read-out: Mouse GLP-1 R agonist cAMP Emax; for EC50: read-out: Mouse GLP-1 R agonist cAMP pEC50 (converted).

Test [4] addresses T4, human GLP1 receptor (Homo sapiens, UniProt P43220).
T4 construct: expressed in transfected cells; host or cells: HEK cells, BacMam virus transduction
Description: cAMP accumulation assay (HTRF), functional agonism of human GLP1 receptor in HEK cells. The format is cell-based. The note with it: HEK cells, human GLP1 receptor BacMam, 45 min 37° C.; for Emax: HEK293, read-out: Human GLP-1R agonist cAMP Emax; for EC50: read-out: Human GLP-1R agonist cAMP pEC50 (converted).

T4 sequence (P43220 24-463): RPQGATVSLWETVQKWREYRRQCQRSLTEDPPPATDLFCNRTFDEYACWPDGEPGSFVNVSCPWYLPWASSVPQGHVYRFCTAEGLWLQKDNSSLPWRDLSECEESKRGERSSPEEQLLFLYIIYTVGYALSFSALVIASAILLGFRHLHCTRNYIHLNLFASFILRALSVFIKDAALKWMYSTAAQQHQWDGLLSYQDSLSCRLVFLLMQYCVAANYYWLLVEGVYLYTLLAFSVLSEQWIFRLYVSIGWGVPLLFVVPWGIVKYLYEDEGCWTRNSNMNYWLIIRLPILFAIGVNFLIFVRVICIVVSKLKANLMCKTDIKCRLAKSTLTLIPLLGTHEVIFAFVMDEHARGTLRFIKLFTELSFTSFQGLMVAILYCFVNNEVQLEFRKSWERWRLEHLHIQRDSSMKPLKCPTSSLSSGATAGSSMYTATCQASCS

For orientation: Emax means the maximal effect, on the per cent scale that the assay sets. For `C=CCOC(=O)NCCCC[C@H](NC(=O)[C@H](CC(C)C)NC(=O)[C@H](CC(=O)O)NC(=O)[C@H](CC(C)C)NC(=O)[C@@H](NC(=O)[C@@H](NC(=O)[C@@H](Cc1ccccc1)NC(=O)[C@H](CCCC)NC(=O)[C@H](CCC(=O)O)NC(=O)[C@H](CC(=O)O)NC(=O)[C@H](CO)NC(=O)[C@H](Cc1ccccc1)NC(=O)[C@H](CO)NC(=O)CNC(=O)[C@H](Cc1nn[nH]n1)NC(=O)C(C)(C)C(=O)NCCc1c[nH]cn1)[C@@H](C)O)[C@@H](C)CC)C(=O)N[C@@H](C)C(=O)N[C@@H](C)C(=O)N[C@@H](CCCCN)C(=O)N[C@@H](CC(=O)O)C(=O)N[C@@H](Cc1ccccc1)C(=O)N[C@H](C(=O)N[C@@H](CC(N)=O)C(=O)N[C@@H](Cc1c[nH]c2ccccc12)C(=O)N[C@@H](CC(C)C)C(=O)N[C@H](C(=O)N[C@@H](CCC(N)=O)C(=O)N[C@H](C(=O)N[C@@H](CCCCN)C(=O)N[C@H](C(=O)N[C@H](C(=O)N[C@@H](Cc1ccccc1)C(N)=O)[C@@H](C)O)[C@@H](C)CC)[C@@H](C)O)[C@@H](C)CC)[C@@H](C)CC` [Example 2] ({Malonyl(2,2-Me2,histaminyl)}-[Ala(1H-tetrazol-5-yl)]GSFSDE[Nle][dF]TILDLK(Alloc)AAKDFINWLIQTKITF-NH2), the Emax was 106% in test [1], 101% in test [2], 96.1% in test [3] and 94.7% in test [4]. Moreover, the EC50 in test [1] was 3.98 nM; in test [2] it was 31.6 pM; in test [3], 25.1 nM; in test [4] it was 7.94 nM.
As to `C=CCOC(=O)NCCCC[C@H](NC(=O)[C@H](CC(C)C)NC(=O)[C@H](CC(=O)O)NC(=O)[C@H](CC(C)C)NC(=O)[C@@H](NC(=O)[C@@H](NC(=O)[C@@H](Cc1ccccc1)NC(=O)[C@H](CCCC)NC(=O)[C@H](CCC(=O)O)NC(=O)[C@H](CC(=O)O)NC(=O)[C@H](CO)NC(=O)[C@H](Cc1ccccc1)NC(=O)[C@H](CO)NC(=O)[C@H](C)NC(=O)[C@H](Cc1nn[nH]n1)NC(=O)C(C)(C)C(=O)NCCc1c[nH]cn1)[C@@H](C)O)[C@@H](C)CC)C(=O)N[C@@H](C)C(=O)N[C@@H](C)C(=O)N[C@@H](CCCCN)C(=O)N[C@@H](CC(=O)O)C(=O)N[C@@H](Cc1ccccc1)C(=O)N[C@H](C(=O)N[C@@H](CC(N)=O)C(=O)N[C@@H](Cc1c[nH]c2ccccc12)C(=O)N[C@@H](CC(C)C)C(=O)N[C@H](C(=O)N[C@@H](CCC(N)=O)C(=O)N[C@H](C(=O)N[C@@H](CCCCN)C(=O)N[C@H](C(=O)N[C@H](C(=O)N[C@@H](CC(=O)O)C(N)=O)[C@@H](C)O)[C@@H](C)CC)[C@@H](C)O)[C@@H](C)CC)[C@@H](C)CC` [Example 12] ({Malonyl(2,2-Me2,histaminyl)}-[Ala(1H-tetrazol-5-yl)]ASFSDE[Nle][dF]TILDLK(Alloc)AAKDFINWLIQTKITD-NH2), the Emax in test [1] was determined as 100%; in test [2] it was 102%; in test [3] it was 83.3%; in test [4], 81.1%.
Regarding `C=CCOC(=O)NCCCC[C@H](NC(=O)[C@H](CC(C)C)NC(=O)[C@H](CC(=O)O)NC(=O)[C@H](CC(C)C)NC(=O)[C@@H](NC(=O)[C@@H](NC(=O)[C@@H](Cc1ccccc1)NC(=O)[C@H](CCCC)NC(=O)[C@H](CCC(=O)O)NC(=O)[C@H](CC(=O)O)NC(=O)[C@H](CO)NC(=O)[C@H](Cc1ccccc1)NC(=O)[C@H](CO)NC(=O)CNC(=O)[C@H](Cc1nn[nH]n1)NC(=O)C(C)(C)C(=O)NCCc1c[nH]cn1)[C@@H](C)O)[C@@H](C)CC)C(=O)N[C@@H](C)C(=O)N[C@@H](C)C(=O)N[C@@H](CCCCN)C(=O)N[C@@H](CC(=O)O)C(=O)N[C@@H](Cc1ccccc1)C(=O)N[C@H](C(=O)N[C@@H](CC(N)=O)C(=O)N[C@@H](Cc1c[nH]c2ccccc12)C(=O)N[C@@H](CC(C)C)C(=O)N[C@H](C(=O)N[C@@H](CCC(N)=O)C(=O)N[C@H](C(=O)N[C@@H](CCCCN)C(=O)N[C@@](C)(CC(C)C)C(=O)N[C@H](C(=O)N[C@@H](CC(=O)O)C(N)=O)[C@@H](C)O)[C@@H](C)O)[C@@H](C)CC)[C@@H](C)CC` [Example 13] ({Malonyl(2,2-Me2,histaminyl)}-[Ala(1H-tetrazol-5-yl)]GSFSDE[Nle][dF]TILDLK(Alloc)AAKDFINWLIQTK[αMeL]TD-NH2), the maximal effect (Emax) in test [1] stood at 101%; in test [2], 100%; in test [3], 92.3%; in test [4], 93.4%. For the same molecule, the EC50 is 3.98 nM in test [1], 7.94 pM in test [2], 3.16 nM in test [3] and 2.51 nM in test [4].
Take `C=CCOC(=O)NCCCC[C@H](NC(=O)[C@H](C)NC(=O)[C@H](C)NC(=O)[C@H](CCCCNC(=O)OCC=C)NC(=O)[C@H](CC(C)C)NC(=O)[C@H](CC(=O)O)NC(=O)[C@H](CC(C)C)NC(=O)C(C)(C)NC(=O)[C@@H](NC(=O)[C@@H](Cc1ccccc1)NC(=O)[C@H](CCCC)NC(=O)[C@H](CCC(=O)O)NC(=O)[C@H](CC(=O)O)NC(=O)[C@H](CO)NC(=O)[C@H](Cc1ccccc1)NC(=O)[C@H](CO)NC(=O)CNC(=O)[C@H](Cc1nn[nH]n1)NC(=O)C(C)(C)C(=O)NCCc1c[nH]cn1)[C@@H](C)O)C(=O)N[C@@H](CC(=O)O)C(=O)N[C@@H](Cc1ccccc1)C(=O)N[C@H](C(=O)N[C@@H](CC(N)=O)C(=O)N[C@@H](Cc1c[nH]c2ccccc12)C(=O)N[C@@H](CC(C)C)C(=O)N[C@H](C(=O)N[C@@H](CCC(N)=O)C(=O)N[C@H](C(=O)N[C@@H](CCCCN)C(=O)N[C@H](C(=O)N[C@H](C(=O)N[C@@H](CC(=O)O)C(N)=O)[C@@H](C)O)[C@@H](C)CC)[C@@H](C)O)[C@@H](C)CC)[C@@H](C)CC` [Example 15] ({Malonyl(2,2-Me2,histaminyl)}-[Ala(1H-tetrazol-5-yl)]GSFSDE[Nle][dF]T[Aib]LDLK(Alloc)AAK(Alloc)DFINWLIQTKITD-NH2): the Emax is 99.9% in test [1], 101% in test [2], 94.4% in test [3] and 95.1% in test [4]. Moreover, the EC50 is 1.58 nM in test [1], 7.94 pM in test [2], 1.58 nM in test [3] and 5.01 nM in test [4].
